Assays:
[1] = molecular target: T1, Cholesteryl ester transfer protein (Homo sapiens, UniProt P11597); assay: Inhibition of recombinant CETP (unknown origin) assessed as inhibition of transfer of [3H] cholesteryl oleate or [3H] triolein between exogenous LDL and HDL in 2% human serum
T1 sequence (P11597 whole entry): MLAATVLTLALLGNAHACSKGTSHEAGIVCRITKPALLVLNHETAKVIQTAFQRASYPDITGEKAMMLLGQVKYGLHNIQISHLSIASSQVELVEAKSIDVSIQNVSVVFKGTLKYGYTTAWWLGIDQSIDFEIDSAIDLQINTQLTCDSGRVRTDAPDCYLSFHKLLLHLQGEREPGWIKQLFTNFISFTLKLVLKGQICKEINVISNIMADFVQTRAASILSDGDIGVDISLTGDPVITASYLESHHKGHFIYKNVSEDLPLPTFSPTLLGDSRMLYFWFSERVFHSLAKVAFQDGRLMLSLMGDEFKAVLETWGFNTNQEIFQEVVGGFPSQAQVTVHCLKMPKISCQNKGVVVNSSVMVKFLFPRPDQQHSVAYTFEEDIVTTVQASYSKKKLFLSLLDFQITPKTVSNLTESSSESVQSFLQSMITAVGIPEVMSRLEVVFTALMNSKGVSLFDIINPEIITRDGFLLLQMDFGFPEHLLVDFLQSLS

[2] = molecular target: T1, Cholesteryl ester transfer protein; assay: Inhibition of CETP in 95% human serum assessed as inhibition of transfer of [3H] cholesteryl oleate or [3H] triolein between LDL and HDL; assay type: cell-free
[3] = In vivo inhibition of CETP in cynomolgus-CETP transgenic mouse plasma at 0.3 mg/kg, po measured after 4 hrs; assay type: functional
[4] = Plasma concentration in cynomolgus-CETP transgenic mouse at 0.3 mg/kg, po measured after 4 hrs; assay type: ADME, organism-based
[5] = In vivo inhibition of CETP in cynomolgus-CETP transgenic mouse assessed as increase in plasma HDL-C level at 0.3 mg/kg, po measured after 4 hrs; assay type: functional; set-up: scale not given: the % may be the effect or the level left
[6] = In vivo inhibition of CETP in cynomolgus-CETP transgenic mouse assessed as increase in plasma HDL-C level at 1 mg/kg, po measured after 4 hrs; assay type: functional; set-up: scale not given: the % may be the effect or the level left
[7] = In vivo inhibition of CETP in cynomolgus-CETP transgenic mouse plasma at 1 mg/kg, po measured after 4 hrs; assay type: functional
[8] = Plasma concentration in cynomolgus-CETP transgenic mouse at 1 mg/kg, po measured after 4 hrs; assay type: ADME, organism-based

Row | SMILES | IC50 [1] | IC50 [2] | further results
1 | COc1ccc(-c2ccc(C(=O)O)cc2C)cc1-c1ccc(C(F)(F)F)cc1[C@@H]1CC[C@H]2[C@@H](c3cc(C(F)(F)F)cc(C(F)(F)F)c3)NC(=O)N12 | 379 nM |  | 
2 | COc1ccc(-c2cccnc2C)cc1-c1ccc(C(F)(F)F)cc1[C@@H]1CC[C@H]2[C@@H](c3cc(C(F)(F)F)cc(C(F)(F)F)c3)NC(=O)N12 | 151 nM |  | 
3 | COc1ccc(-c2ccc(C(=O)O)nc2C)cc1-c1ccc(C(F)(F)F)cc1[C@@H]1CC[C@H]2[C@@H](c3cc(C(F)(F)F)cc(C(F)(F)F)c3)NC(=O)N12 | 468 nM |  | 
4 | COc1ncc(-c2ccc(C(=O)O)cc2C)cc1-c1ccc(C(F)(F)F)cc1[C@@H]1CC[C@H]2[C@@H](c3cc(C(F)(F)F)cc(C(F)(F)F)c3)N(C)C(=O)N12 | 248 nM |  | 
5 | COc1ncc(-c2c(C)cc(C(=O)O)cc2C)cc1-c1ccc(C(F)(F)F)cc1[C@@H]1CC[C@H]2[C@@H](c3cc(C(F)(F)F)cc(C(F)(F)F)c3)NC(=O)N12 | 104 nM |  | 
6 | COc1ccc(-c2ccc(C(=O)O)cc2C)cc1-c1ccc(C(F)(F)F)cc1[C@@H]1CC[C@H]2[C@@H](c3cc(C(F)(F)F)cc(C(F)(F)F)c3)NS(=O)(=O)N12 | 135 nM |  | 
7 | COc1ccc(CCC(=O)O)cc1-c1ccc(C(F)(F)F)cc1[C@@H]1CC[C@H]2[C@@H](c3cc(C(F)(F)F)cc(C(F)(F)F)c3)NC(=O)N12 | 550 nM |  | 
8 | COc1ccc(-c2ccc(C(=O)O)cc2C)cc1-c1cnc(C(F)(F)F)cc1[C@@H]1CC[C@H]2[C@@H](c3cc(C(F)(F)F)cc(C(F)(F)F)c3)NC(=O)N12 | 544 nM |  | 
9 | COc1ccc(-c2ccc(C(=O)O)cc2C)cc1-c1ccc(C(F)(F)F)cc1[C@@H]1CC[C@H]2[C@@H](c3cc(C(F)(F)F)cc(C(F)(F)F)c3)N(C)C(=O)N12 | 414 nM |  | 

The next lines start with results.

Row | IC50 [1] | IC50 [2] | SMILES | further results
10 | 394 nM | 2680 nM | COc1ccc([C@H]2CC[C@H](C(=O)O)CC2)cc1-c1ccc(C(F)(F)F)cc1[C@@H]1CC[C@H]2[C@@H](c3cc(C(F)(F)F)cc(C(F)(F)F)c3)NS(=O)(=O)N12 | 
11 | 2780 nM | > 10000 nM | COc1cc(F)c(C(C)C)cc1-c1ccc(C(F)(F)F)cc1CN1C(=O)N[C@H](c2cc(C(F)(F)F)cc(C(F)(F)F)c2)[C@@H]1C | 
12 | 28 nM | 129 nM | COc1ncc(-c2ccc(C(=O)O)cc2C)cc1-c1ccc(C(F)(F)F)cc1CN1C(=O)N(C)[C@H](c2cc(C(F)(F)F)cc(C(F)(F)F)c2)[C@@H]1C | inhibition in vivo at 0.3 mg/kg [3]: 77%; concentration at 4 h [4]: 630 nM; Activity [5]: 51%
13 | 38 nM | 397 nM | COc1ncc(-c2ccc(C(=O)O)cc2C)cc1-c1ccc(C(F)(F)F)cc1CN1C(=O)N[C@H](c2cc(C(F)(F)F)cc(C(F)(F)F)c2)[C@@H]1C | 
14 | 1110 nM | 1730 nM | COc1ccc([C@H]2CC[C@H](C(=O)O)CC2)cc1-c1ccc(C(F)(F)F)cc1[C@@H]1CC[C@H]2[C@@H](c3cc(C(F)(F)F)cc(C(F)(F)F)c3)NC(=O)N12 | 
15 | 37 nM | 339 nM | COc1ccc(-c2ccc(C(=O)O)cc2C)cc1-c1ccc(C(F)(F)F)cc1CN1C(=O)N[C@H](c2cc(C(F)(F)F)cc(C(F)(F)F)c2)[C@@H]1C | Activity [6]: 101%; inhibition in vivo at 1 mg/kg [7]: 87%; concentration at 4 h [8]: 700 nM
16 | 55 nM | 95 nM | COc1ncc(-c2c(C)cc(C(=O)NC3(C#N)CC3)cc2C)cc1-c1ccc(C(F)(F)F)cc1[C@@H]1CC[C@H]2[C@@H](c3cc(C(F)(F)F)cc(C(F)(F)F)c3)NC(=O)N12 | Activity [6]: 30%; inhibition in vivo at 1 mg/kg [7]: 67%; concentration at 4 h [8]: 1000 nM
17 | 18 nM | 446 nM | COc1ccc(-c2ccc(C(=O)O)cc2C)cc1-c1ccc(C(F)(F)F)nc1CN1C(=O)N[C@H](c2cc(C(F)(F)F)cc(C(F)(F)F)c2)[C@@H]1C | Activity [6]: 86%; inhibition in vivo at 1 mg/kg [7]: 89%; concentration at 4 h [8]: 830 nM
18 | 106 nM | 305 nM | COc1ncc(-c2ccc(C(=O)O)cc2C)cc1-c1ccc(C(F)(F)F)cc1[C@@H]1CC[C@H]2[C@@H](c3cc(C(F)(F)F)cc(C(F)(F)F)c3)NC(=O)N12 | inhibition in vivo at 0.3 mg/kg [3]: 32%; concentration at 4 h [4]: 550 nM; Activity [5]: 58%
19 | 17 nM | 364 nM | COc1ncc(-c2ccc(C(=O)O)cc2C)cc1-c1ccc(C(F)(F)F)nc1CN1C(=O)N[C@H](c2cc(C(F)(F)F)cc(C(F)(F)F)c2)[C@@H]1C | Activity [6]: 139%; inhibition in vivo at 1 mg/kg [7]: 87%; concentration at 4 h [8]: 1260 nM

— ChEMBL document CHEMBL4680288, “Cholesteryl ester transfer protein (CETP) inhibitors based on cyclic urea, bicyclic urea and bicyclic sulfamide cores” (Bioorg Med Chem Lett, 2021)
